Measured values taken from US10894788B2, “Inhibitors of cyclin-dependent kinases” (Kinnate Biopharma Inc., priority 2018, dated 2021).

target: CDK12 wt/CycK (Homo sapiens (Human), UniProt Q9NYV4); test: Radiometric protein kinase assay (33PanQinase Activity Assay), Assay Condition A (thiol containing conditions); assay type: biochemical; conditions: thiol containing conditions (1.2 mM DTT), ATP 0.3 μM; read-out: CDK12 IC50 Condition A
Summary of the method: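 Recombinant human kinase incubated with [33P]ATP, substrate and compound (10 concentrations, 1×10^−04M to 3×10^−09M, singlicate, 1% DMSO) under thiol-containing buffer conditions, 60 min at 30 °C. 33Pi incorporation counted by scintillation; residual activity normalised to no-inhibitor and no-kinase controls, IC50 derived.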

Sequence of CDK12 wt/CycK (Q9NYV4 whole entry): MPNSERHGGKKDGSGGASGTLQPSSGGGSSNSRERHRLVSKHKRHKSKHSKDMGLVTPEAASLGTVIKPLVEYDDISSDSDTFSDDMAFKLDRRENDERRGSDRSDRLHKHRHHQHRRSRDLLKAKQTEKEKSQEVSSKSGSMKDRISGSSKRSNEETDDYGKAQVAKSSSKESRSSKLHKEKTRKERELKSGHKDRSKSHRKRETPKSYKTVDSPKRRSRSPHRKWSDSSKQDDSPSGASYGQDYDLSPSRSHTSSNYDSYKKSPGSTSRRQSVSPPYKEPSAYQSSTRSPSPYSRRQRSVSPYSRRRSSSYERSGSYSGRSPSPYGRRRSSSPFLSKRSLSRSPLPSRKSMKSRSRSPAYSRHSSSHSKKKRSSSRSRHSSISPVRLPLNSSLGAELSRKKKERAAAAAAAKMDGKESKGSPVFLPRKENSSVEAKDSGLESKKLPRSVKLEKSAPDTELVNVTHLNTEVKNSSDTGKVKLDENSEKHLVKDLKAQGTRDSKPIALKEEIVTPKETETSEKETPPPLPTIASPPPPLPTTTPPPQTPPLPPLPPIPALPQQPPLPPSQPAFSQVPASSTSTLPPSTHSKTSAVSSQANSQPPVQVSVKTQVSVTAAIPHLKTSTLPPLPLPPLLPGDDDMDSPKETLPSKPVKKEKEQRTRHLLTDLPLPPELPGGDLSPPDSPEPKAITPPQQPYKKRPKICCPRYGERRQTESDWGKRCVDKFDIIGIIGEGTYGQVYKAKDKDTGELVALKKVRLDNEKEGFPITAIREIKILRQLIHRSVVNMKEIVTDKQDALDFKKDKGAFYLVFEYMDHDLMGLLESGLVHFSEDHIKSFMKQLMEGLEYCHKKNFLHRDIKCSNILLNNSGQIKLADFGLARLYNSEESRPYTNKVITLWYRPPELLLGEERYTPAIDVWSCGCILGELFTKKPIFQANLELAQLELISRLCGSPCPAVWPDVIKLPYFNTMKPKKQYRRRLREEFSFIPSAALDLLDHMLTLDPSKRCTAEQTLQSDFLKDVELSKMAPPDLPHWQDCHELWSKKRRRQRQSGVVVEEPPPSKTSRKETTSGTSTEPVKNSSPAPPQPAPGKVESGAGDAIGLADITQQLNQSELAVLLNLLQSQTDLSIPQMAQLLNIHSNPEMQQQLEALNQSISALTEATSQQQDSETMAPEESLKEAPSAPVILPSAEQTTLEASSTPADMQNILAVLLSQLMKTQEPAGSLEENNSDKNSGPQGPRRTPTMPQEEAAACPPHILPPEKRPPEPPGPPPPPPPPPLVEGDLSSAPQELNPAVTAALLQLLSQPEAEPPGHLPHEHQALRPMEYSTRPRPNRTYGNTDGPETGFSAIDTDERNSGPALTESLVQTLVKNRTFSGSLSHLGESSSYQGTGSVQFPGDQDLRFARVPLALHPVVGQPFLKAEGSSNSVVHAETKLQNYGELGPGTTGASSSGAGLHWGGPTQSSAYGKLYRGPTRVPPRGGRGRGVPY
Sequence of CDK12 wt/CycK (O75909 whole entry partner): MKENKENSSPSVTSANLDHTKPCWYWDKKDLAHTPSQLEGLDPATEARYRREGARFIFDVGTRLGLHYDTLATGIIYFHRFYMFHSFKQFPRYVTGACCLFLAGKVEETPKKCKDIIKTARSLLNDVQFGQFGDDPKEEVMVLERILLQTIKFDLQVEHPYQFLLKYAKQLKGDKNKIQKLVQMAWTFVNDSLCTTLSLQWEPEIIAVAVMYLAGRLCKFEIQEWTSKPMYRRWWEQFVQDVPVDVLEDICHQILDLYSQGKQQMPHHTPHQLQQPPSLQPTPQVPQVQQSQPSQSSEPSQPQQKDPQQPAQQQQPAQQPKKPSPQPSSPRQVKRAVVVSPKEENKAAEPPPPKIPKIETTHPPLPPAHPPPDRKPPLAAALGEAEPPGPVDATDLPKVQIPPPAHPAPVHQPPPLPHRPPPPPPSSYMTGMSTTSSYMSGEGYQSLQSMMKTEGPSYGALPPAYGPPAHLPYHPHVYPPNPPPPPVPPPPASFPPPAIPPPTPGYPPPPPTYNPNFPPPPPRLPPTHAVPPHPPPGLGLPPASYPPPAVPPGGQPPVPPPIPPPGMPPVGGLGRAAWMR

`C=CC(=O)Nc1ccc(C(=O)N2C[C@H](Nc3ncc(Cl)c(OC)n3)C[C@H]2C)cc1` [Example 183, N-(4-((2R,4R)-4-((5-chloro-4-methoxypyrimidin-2-yl)amino)-2-methylpyrrolidine-1-carbonyl)phenyl)acrylamide] and `C=CC(=O)Nc1ccc(C(=O)N2CC[C@@H](Nc3ncc(C(F)(F)F)cn3)C2)cc1` [Example 184, (R)—N-(4-(3-((5-(trifluoromethyl)pyrimidin-2-yl)amino)pyrrolidine-1-carbonyl)phenyl)acrylamide] cannot be ordered by IC50: less than 0.1 µM for the first, less than 0.1 µM for the second.

target: CDK12 (Homo sapiens (Human), UniProt Q9NYV4); test: Radiometric protein kinase assay (33PanQinase Activity Assay), Assay Condition B (thiol-free conditions); assay type: biochemical; conditions: thiol-free conditions (1 mM TCEP, glutathione removed)
Experimental: Example 2—Assay Condition B (Thiol-Free Conditions)
The IC50 profile of compounds was determined using one protein kinase in a customized, thiol free assay. […] Prior to testing, the 1×10^−03 M stock solutions in column 2 of the master plates were subjected to a serial, semi-logarithmic dilution using 100% DMSO as a solvent. […] Column 1 and 7 were filled with 100% DMSO as controls. Subsequently, 2×10 microliter from each well of the serial diluted copy plates were aliquoted with a 96 channel pipettor into two identical sets of “compound dilution plates”. All plates were barcoded for automated identification and tracking purposes. […] All compounds were stored as powder until being solubilized in DMSO. Solubilized compounds were stored as 1×10^−02 M/100% DMSO stock solutions. Prior to the assay process, 90 microliters of H2O were added to each well of a set of compound dilution plates. To minimize potential precipitation, the H2O was added to each plate only a few minutes before the transfer of the compound solutions into the assay plates. Each plate was shaken thoroughly, resulting in compound dilution plates with a final of 10% DMSO. For each assay, 5 microliters of solution from each well of the compound dilution plates/10% DMSO were transferred into the assay plate. The final volume of the assay was 50 μl. All compounds were tested at 10 final assay concentrations in the range from 1×10^−05 M to 3×10^−10 M, in singlicate. The final DMSO concentration in the reaction cocktails was 1% in all cases. A radiometric protein kinase assay (33PanQinase® Activity Assay) was used for measuring the kinase activity of the protein kinase. All kinase assays were performed in 96-well FlashPlates™ from PerkinElmer (Boston, Mass., USA) in a 50 microliter reaction volume. The reaction cocktail was pipetted in four steps in the following order: 20 microliter of assay buffer (standard buffer)·5 microliter of ATP solution (in H2O)·5 microliter of test compound (in 10% DMSO)·20 microliter enzyme/substrate mix. […] For all experiments labeled as “Thiol-free”, all glutathione was exchanged from protein preparations so as to be removed from the assay and final buffer conditions contained no thiol-containing reagents. This was done so there would be no interference with the key cysteines in the proteins of interest.
For data analysis, the median value of the counts in column 1 (n=8) of each assay plate was defined as “low control”. This value reflects unspecific binding of radioactivity to the plate in the absence of a protein kinase but in the presence of the substrate. The median value of the counts in column 7 of each assay plate (n=8) was taken as the “high control”, i.e. full activity in the absence of any inhibitor. The difference between high and low control was taken as 100% activity. As part of the data evaluation the low control value from a particular plate was subtracted from the high control value as well as from all 80 “compound values” of the corresponding plate. The residual activity (in %) for each well of a particular plate was calculated by using the following formula: Res. Activity (%)=100×[(cpm of compound−low control)/(high control−low control)]
The residual activities for each concentration and the compound IC50 values were calculated using Quattro Workflow V3.1.1 (Quattro Research GmbH, Munich, Germany; www.quattro-research.com). […] The fitting method used was a least-squares fit. As a parameter for assay quality, the Z′-factor (Zhang et al., J. Biomol. Screen. 2: 67-73, 1999) for the low and high controls of each assay plate (n=8) was used. ProQinase's criterion for repetition of an assay plate is a Z′-factor below 0.4 (Iversen et al., J. Biomol. Screen. 3: 247-252, 2006).

Sequence of CDK12 (Q9NYV4 whole entry): as the sequence (Q9NYV4 whole entry) above
Sequence of CDK12 (O75909 whole entry partner): as the sequence (O75909 whole entry partner) above

Compared with `C=CC(=O)Nc1ccc(C(=O)N2CC[C@@H](Nc3nccc(OC4CCCC4)n3)C2)cc1` (stereo in doubt) [Example 45, N-{4-[3-(4-Cyclopentyloxy-pyrimidin-2-ylamino)-pyrrolidine-1-carbonyl]-phenyl}-acrylamide], `C=CC(=O)Nc1ccc(C(=O)N2CC[C@@H](Nc3ncc(Cl)c(OC4CC4)n3)C2)cc1` [Example 21, (R)—N-(4-(3-((5-chloro-4-cyclopropoxypyrimidin-2-yl)amino)pyrrolidine-1-carbonyl)phenyl)acrylamide] is lower in IC50: 0.1 to 1 µM for the first, less than 0.1 µM for the second.

Compared with `C=CC(=O)Nc1ccc(C(=O)N2CC[C@@H](Nc3nccc(Oc4cnn(C)c4)n3)C2)cc1` (stereo in doubt) [Example 46, N-(4-{3-[4-(1-Methyl-1H-pyrazol-4-yloxy)-pyrimidin-2-ylamino]-pyrrolidine-1-carbonyl}-phenyl)-acrylamide], `C=CC(=O)Nc1ccc(C(=O)N2CC[C@@H](Nc3nccc(-c4cncs4)n3)C2)cc1` (stereo in doubt) [Example 48, N-{4-[3-(4-Thiazol-5-yl-pyrimidin-2-ylamino)-pyrrolidine-1-carbonyl]-phenyl}-acrylamide] is lower in IC50: 1 to 10 µM for the first, 0.1 to 1 µM for the second. The second is the more potent here.

`C=CC(=O)Nc1ccc(C(=O)N2CC[C@@H](Nc3ncc(Cl)c(OC)n3)C2)cc1OC` [Example 1, (R)-N-(4-(3-((5-chloro-4-methoxypyrimidin-2-yl)amino)pyrrolidine-1-carbonyl)-2-methoxyphenyl)acrylamide] and `C=CC(=O)Nc1ccc(C(=O)N2CC[C@@H](Nc3ncc(Cl)c(OC)n3)C2)cc1Cl` [Example 5, (R)-N-(2-chloro-4-(3-((5-chloro-4-methoxypyrimidin-2-yl)amino)pyrrolidine-1-carbonyl)phenyl)acrylamide] cannot be ordered by IC50: less than 0.1 µM for the first, less than 0.1 µM for the second.

Compared with `C=CC(=O)N1CCOc2cc(C(=O)N3CC[C@@H](Nc4ncc(Cl)c(OC)n4)C3)ccc21` [Example 2, (R)-1-(7-(3-((5-chloro-4-methoxypyrimidin-2-yl)amino)pyrrolidine-1-carbonyl)-2H-benzo[b][1,4]oxazin-4(3H)-yl)prop-2-en-1-one], `C=CC(=O)N1CCc2cc(C(=O)N3CC[C@@H](Nc4ncc(Cl)c(OC)n4)C3)ccc21` [Example 27, (R)-1-(5-(3-((5-chloro-4-methoxypyrimidin-2-yl)amino)pyrrolidine-1-carbonyl)indolin-1-yl)prop-2-en-1-one] is lower in IC50: 0.1 to 1 µM for the first, less than 0.1 µM for the second.

`C=CC(=O)Nc1ccc(C(=O)N2CC[C@@H](Nc3ncc(Cl)c(OC)n3)C2)cc1-c1cnn(C)c1` [Example 4, (R)-N-(4-(3-((5-chloro-4-methoxypyrimidin-2-yl)amino)pyrrolidine-1-carbonyl)-2-(1-methyl-1H-pyrazol-4-yl)phenyl)acrylamide] and `C=CC(=O)Nc1ccc(C(=O)N2CC[C@@H](Nc3ncc(Cl)cn3)C2)cc1-c1cnn(C)c1` [Example 12, (R)—N-(4-(3-((5-chloropyrimidin-2-yl)amino)pyrrolidine-1-carbonyl)-2-(1-methyl-1H-pyrazol-4-yl)phenyl)acrylamide] fall in the same range of IC50: 0.1 to 1 µM for the first, 0.1 to 1 µM for the second.

`C=CC(=O)Nc1ccc(C(=O)N2CC[C@@H](Nc3ncc(Cl)cn3)C2)cc1Cl` [Example 6, (R)-N-(2-chloro-4-(3-((5-chloropyrimidin-2-yl)amino)pyrrolidine-1-carbonyl)phenyl)acrylamide] and `C=CC(=O)Nc1ccc(C(=O)N2CC[C@@H](Nc3ncc(Cl)c(OCC(F)(F)F)n3)C2)cc1` [Example 24, (R)—N-(4-(3-((5-chloro-4-(2,2,2-trifluoroethoxy)pyrimidin-2-yl)amino)pyrrolidine-1-carbonyl)phenyl)acrylamide] cannot be ordered by IC50: less than 0.1 µM for the first, less than 0.1 µM for the second.

First: C=CC(=O)Nc1nc(C(=O)N2CC[C@@H](Nc3ncc(Cl)c(OC)n3)C2)cs1 [Example 7, (R)-N-(4-(3-((5-chloro-4-methoxypyrimidin-2-yl)amino)pyrrolidine-1-carbonyl)thiazol-2-yl)acrylamide]
Second: C=CC(=O)Nc1ncc(C(=O)N2CC[C@@H](Nc3ncc(Cl)c(OC)n3)C2)s1 [Example 8, (R)—N-(5-(3-((5-chloro-4-methoxypyrimidin-2-yl)amino)pyrrolidine-1-carbonyl)thiazol-2-yl)acrylamide]
The IC50 of the first is lower: less than 0.1 µM for the first, 0.1 to 1 µM for the second. The first is the more potent here.

`C=CC(=O)Nc1ccc(C(=O)N2CC[C@@H](Nc3ncc(Cl)c(OC)n3)C2)cc1N1CCN(C)CC1` [Example 9, (R)-N-(4-(3-((5-chloro-4-methoxypyrimidin-2-yl)amino)pyrrolidine-1-carbonyl)-2-(4-methylpiperazin-1-yl)phenyl)acrylamide] and `C=CC(=O)Nc1ccc(C(=O)N2CC[C@@H](Nc3ncc(Cl)c(OC)n3)C2)cc1N1CCOCC1` [Example 10, (R)—N-(4-(3-((5-chloro-4-methoxypyrimidin-2-yl)amino)pyrrolidine-1-carbonyl)-2-morpholinophenyl)acrylamide] cannot be ordered by IC50: less than 0.1 µM for the first, less than 0.1 µM for the second.

First: C=CC(=O)Nc1ccc(C(=O)N2CC[C@@H](Nc3ncc(Cl)c(OC)n3)C2)cc1N1CCCCC1 [Example 11, (R)—N-(4-(3-((5-chloro-4-methoxypyrimidin-2-yl)amino)pyrrolidine-1-carbonyl)-2-(piperidin-1-yl)phenyl)acrylamide]
Second: C=CC(=O)Nc1ccc(C(=O)N2CC[C@@H](Nc3ncc(C)c(OC4CC4)n3)C2)cc1 [Example 22, (R)—N-(4-(3-((4-cyclopropoxy-5-methylpyrimidin-2-yl)amino)pyrrolidine-1-carbonyl)phenyl)acrylamide]
The IC50 of the first is lower: less than 0.1 µM for the first, 0.1 to 1 µM for the second. The first is the more potent here.

First: CCC(=O)Nc1ccc(C(=O)N2CC[C@@H](Nc3ncc(F)c(OC4CC4)n3)C2)cc1 [Example 13, (R)—N-(4-(3-((4-cyclopropoxy-5-fluoropyrimidin-2-yl)amino)pyrrolidine-1-carbonyl)phenyl)propionamide]
Second: CCC(=O)Nc1ccc(C(=O)N2CC[C@@H](Nc3ncc(Cl)c(OC4CC4)n3)C2)cc1 [Example 15, (R)—N-(4-(3-((5-chloro-4-cyclopropoxypyrimidin-2-yl)amino)pyrrolidine-1-carbonyl)phenyl)propionamide]
The IC50 of the first is higher: 1 to 10 µM for the first, 0.1 to 1 µM for the second.

Compared with `CCC(=O)Nc1ccc(C(=O)N2CC[C@@H](Nc3ncc(C)c(OC4CC4)n3)C2)cc1` [Example 16, (R)—N-(4-(3-((4-cyclopropoxy-5-methylpyrimidin-2-yl)amino)pyrrolidine-1-carbonyl)phenyl)propionamide], `C=CC(=O)Nc1ccc(C(=O)N2CC[C@@H](Nc3ncc(F)c(OC4CC4)n3)C2)cc1` [Example 23, (R)—N-(4-(3-((4-cyclopropoxy-5-fluoropyrimidin-2-yl)amino)pyrrolidine-1-carbonyl)phenyl)acrylamide] is lower in IC50: 1 to 10 µM for the first, 0.1 to 1 µM for the second.

With `CCC(=O)Nc1ccc(C(=O)N2CC[C@@H](Nc3ncc(Cl)c(OCC(F)(F)F)n3)C2)cc1` [Example 18, (R)—N-(4-(3-((5-chloro-4-(2,2,2-trifluoroethoxy)pyrimidin-2-yl)amino)pyrrolidine-1-carbonyl)phenyl)propionamide] the IC50 was 0.1 to 1 µM.
